Test results reported in the supplement of paper PMC11061612.

What was measured:
Test in all cases: Bliss excess, mean over the matrix (fraction); higher = more synergy
[1] = test system: TE-9 (Esophageal Squamous Cell Carcinoma)
Procedure, shortened: (§1)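 Cell lines in DMEM/F12 or RPMI with 10% FBS were plated in 1536-well plates, held 24 hours at 37°C, 5% CO2, then given two-drug dose matrices for 72 hours (DMSO typically 0.2%). Viability was read by CellTiter-Glo 2.0 luminescence and scaled as inhibition from 0 (vehicle wells) to 1 (blank wells). Combination Emax is the second-highest inhibition in the matrix; Bliss excess is observed combination effect minus expected EA + EB − EA·EB, EA and EB being single-agent effects.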

[2] = test system: NCI-H2085 (Non-Small Cell Lung Carcinoma)
Procedure, shortened: as §1

[3] = test system: DoTc2-4510 (Cervical Carcinoma)
Procedure, shortened: as §1

[4] = test system: ME-1 (Acute Myeloid Leukemia)
Procedure, shortened: as §1

[5] = test system: T98G (Glioblastoma)
Procedure, shortened: as §1

[6] = test system: NB10 (Neuroblastoma)
Procedure, shortened: as §1

[7] = test system: CAL-148 (Breast Carcinoma)
Procedure, shortened: as §1

[8] = test system: Ramos-2G6-4C10 (Burkitt's Lymphoma)
Procedure, shortened: as §1

[9] = test system: TE-15 (Esophageal Squamous Cell Carcinoma)
Procedure, shortened: as §1

[10] = test system: LB831-BLC (Bladder Carcinoma)
Procedure, shortened: as §1

[11] = test system: Hs-578-T (Breast Carcinoma)
Procedure, shortened: as §1

[12] = test system: HCC-78 (Lung Adenocarcinoma)
Procedure, shortened: as §1

[13] = test system: NCI-H82 (Small Cell Lung Carcinoma)
Procedure, shortened: as §1

[14] = test system: UM-UC-3 (Bladder Carcinoma)
Procedure, shortened: as §1

[15] = test system: LS-180 (Colorectal Carcinoma)
Procedure, shortened: as §1

[16] = test system: CaR-1 (Colorectal Carcinoma)
Procedure, shortened: as §1

[17] = test system: Calu-3 (Lung Adenocarcinoma)
Procedure, shortened: as §1

[18] = test system: CCRF-CEM (T-Lymphoblastic Leukemia)
Procedure, shortened: as §1

[19] = test system: HOS (Osteosarcoma)
Procedure, shortened: as §1

[20] = test system: RO82-W-1 (Thyroid Gland Carcinoma)
Procedure, shortened: as §1

Row | SMILES | Bliss excess [1] | Bliss excess [2] | Bliss excess [3] | Bliss excess [4] | Bliss excess [5] | Bliss excess [6] | Bliss excess [7] | Bliss excess [8] | Bliss excess [9] | Bliss excess [10] | Bliss excess [11] | Bliss excess [12] | Bliss excess [13] | Bliss excess [14] | Bliss excess [15] | Bliss excess [16] | Bliss excess [17] | Bliss excess [18] | Bliss excess [19] | Bliss excess [20]
1 | C[C@@H](Oc1cc(-c2cnn(C3CCNCC3)c2)cnc1N)c1c(Cl)ccc(F)c1Cl [Crizotinib] + CC1=C(C(=CC=C1)Cl)NC(=O)C2=CN=C(S2)NC3=CC(=NC(=N3)C)N4CCN(CC4)CCO [Dasatinib] (first compound max 10 µM, 7x7, partner max 2 µM) | 0.0657 | 0.0551 | 0.0349 | -0.0061 | 0.0943 | -0.0423 | -0.0351 | -0.0216 | -0.0403 | 0.0269 | 0.0455 | 0.0887 | -0.0642 | 0.0577 | -0.0156 | 0.0573 | -0.0158 | -0.0055 | -0.0153 | 0.0517
2 | C[C@@H](Oc1cc(-c2cnn(C3CCNCC3)c2)cnc1N)c1c(Cl)ccc(F)c1Cl [Crizotinib] + Cn1cnc2c(F)c(Nc3ccc(Br)cc3Cl)c(C(=O)NOCCO)cc21 [Selumetinib] (first compound max 10 µM, 7x7, partner max 10 µM) | -0.0199 | -0.0399 | -0.0514 | 0.0624 | -0.0578 | -0.0221 | -0.0173 | -0.0875 | -0.021 | -0.049 | -0.0131 | 0.0444 | -0.0702 | -0.0136 | -0.0236 | 0.0092 | -0.0507 | -0.0682 | -0.0566 | -0.0227
3 | CS(=O)(=O)CCNCc1ccc(-c2ccc3ncnc(Nc4ccc(OCc5cccc(F)c5)c(Cl)c4)c3c2)o1 [Lapatinib] + Cn1cnc2c(F)c(Nc3ccc(Br)cc3Cl)c(C(=O)NOCCO)cc21 [Selumetinib] (first compound max 10 µM, 7x7, partner max 10 µM) | -0.0341 | -0.0366 | -0.0459 | 0.0694 | 0.0075 | 0.0376 | 0.0085 | 0.0139 | -0.0388 | -0.0344 | -0.0311 | -0.0196 | -0.0082 | 0.0547 | 0.0947 | 0.0337 | -0.009 | -0.0051 | -0.0848 | -0.0093
4 | CS(=O)(=O)CCNCc1ccc(-c2ccc3ncnc(Nc4ccc(OCc5cccc(F)c5)c(Cl)c4)c3c2)o1 [Lapatinib] + NC1(c2ccc(-c3nc4ccn5c(=O)[nH]nc5c4cc3-c3ccccc3)cc2)CCC1 [MK-2206] (first compound max 10 µM, 7x7, partner max 10 µM) | -0.0208 | 0.0463 | 0.0089 | -0.0069 | 0.0128 | -0.0423 | 0.0253 | 0.0215 | -0.0202 | -0.0044 | 0.0381 | -0.0464 | -0.0176 | -0.0065 | 0.0501 | -0.0032 | 0.0123 | 0.026 | -0.0218 | -0.0165
5 | O=C(c1cc(Cc2n[nH]c(=O)c3ccccc23)ccc1F)N1CCN(C(=O)C2CC2)CC1 [Olaparib] + CC1(C)CCC(CN2CCN(c3ccc(C(=O)NS(=O)(=O)c4ccc(NCC5CCOCC5)c([N+](=O)[O-])c4)c(Oc4cnc5[nH]ccc5c4)c3)CC2)=C(c2ccc(Cl)cc2)C1 [Venetoclax] (first compound max 10 µM, 7x7, partner max 1 µM) | -0.045 | -0.0608 | -0.0462 | 0.0436 | -0.0269 | -0.0041 | -0.0581 | -0.0167 | -0.0098 | -0.0271 | -0.115 | -0.0181 | -0.0197 | -0.0528 | -0.0431 | -0.0509 | -0.0406 | -0.0036 | -0.0626 | -0.0277
6 | O=C(c1cc(Cc2n[nH]c(=O)c3ccccc23)ccc1F)N1CCN(C(=O)C2CC2)CC1 [Olaparib] + CN(CC[C@H](CSC1=CC=CC=C1)NC2=C(C=C(C=C2)S(=O)(=O)NC(=O)C3=CC=C(C=C3)N4CCC(CC4)[C@H](C5=CC=CC=C5C6=CC=C(C=C6)Cl)O)S(=O)(=O)C(F)(F)F)CCO [AZD4320] (first compound max 10 µM, 7x7, partner max 1 µM) | -0.003 | -0.0134 | 0.03 | -0.0216 | 0.0008 | -0.0471 | 0.0335 | -0.0184 | -0.0494 | -0.0076 | -0.0625 | -0.016 | -0.0532 | 0.0086 | -0.0552 | -0.054 | -0.027 | 0.0247 | 0.0192 | 0.0031
